According to US9179694B2, “Method and composition for enhancing milk production and milk component concentrations” (PURINA ANIMAL NUTRITION LLC, priority 2003, dated 2015):
Marks after values point to notes of the source that are not given here.

Experiment: True protein content of produced milk in sorbitol feeding trials
Assay type: in vivo, Holstein cows
Conditions: for True Protein in Produced Milk: Pre-Partum Trial #1 (75/0/0 g/day in wk −3..−1/+1..+4/+5..+8)
Procedure: To determine the percent of total protein, wet basis, in a sample, the actual weight of total protein is determined in accordance with Method #991.20 (33.2.11) of Official Methods of Analysis, Association of Official Analytical Chemists (AOAC) (16th Ed., 1995). The value determined by the above method yields “total Kjeldahl nitrogen,” which is equivalent to “total protein” since the above method incorporates a factor that accounts for the average amount of nitrogen in protein. Since any and all total Kjeldahl nitrogen determinations presented herein are based on the above method, the terms “total Kjeldahl nitrogen” and “total protein” are used interchangeably herein. Furthermore, those skilled in the art will recognize that the term “total Kjeldahl nitrogen” is generally used in the art to mean “total protein” with the understanding that the factor has been applied. The weight percent total protein, wet basis, is calculated by dividing the actual weight of total protein by the actual weight of the sample. The weight percent of true protein, wet basis, for a particular sample is calculated after first determining the wet basis weight percent of total Kjeldahl nitrogen and the wet basis weight percent of non-protein nitrogen in the sample. The wet basis weight percent of total Kjeldahl nitrogen in the sample is determined using the method referenced above. The wet basis weight percent of non-protein nitrogen (NPN) in the sample is determined in accordance with Method #991.21 (33.2.12) of Official Methods of Analysis, Association of Official Analytical Chemists (AOAC) (16th Ed., 1995). The weight percent of true protein, wet basis, in the sample is then determined by subtracting the wet basis weight percent of non-protein nitrogen in the sample from the wet basis weight percent of total Kjeldahl nitrogen in the sample. Each cow of each of the six different trials (Control Trial #1, Control Trial #2, Pre-Partum Trial #1, Pre-Partum Trial #2, Pre/Post Trial #1, and Pre/Post Trial #2) was milked three times daily and the weight of produced milk by each cow was recorded at each milking. The milk from each cow was sampled once per week (⅓ of the sample volume from each of the three milkings occurring on the weekly milk sampling day) and was analyzed for true protein, total fat, lactose, and total solids, as detailed in the property determination and characterization techniques presented above. Additionally, samples of blood were periodically obtained from each cow during the four trials (Control Trial 2, Pre-Partum Trial #2, Pre/Post Trial #1, and Pre/Post Trial #2) encompassed in Example Two and were analyzed for non-esterified fatty acid (NEFA) content as detailed in the property determination and characterization techniques presented above. No NEFA analysis was conducted on the cows employed in Control Trial #1 or Pre-Partum Trial #1 that are the subject of Example One. Example One includes Control Trial #1 and Pre-Partum Trial #1. Both primiparious cows and multiparious cows were included in Control Trial #1 and Pre-Partum Trial #1. Five primiparious cows and fifteen multiparious cows were included in Control Trial #1; likewise, five primiparious cows and fifteen multiparious cows were included in Pre-Partum Trial #1. All cows included in Control Trial #1 and Pre-Partum Trial #1 were Holsteins. Example Two includes Control Trial #2, Pre-Partum Trial #2, Pre/Post Trial #1, and Pre/Post Trial #2. Only multiparious, Holstein cows were included in Control Trial #2, Pre-Partum Trial #1, Pre/Post Trial #1, and Pre/Post Trial #2. Eighteen multiparious cows were included in both Control Trial #2 and Pre-Partum Trial #2, while sixteen multiparious cows were included in Pre/Post Trial #1 and seventeen multiparious cows were included in Pre/Post Trial #2.

For `OC[C@@H](O)[C@@H](O)[C@H](O)[C@@H](O)CO` [sorbitol], the “True Protein in Produced Milk” value (multiparious cows, weeks +1 through +8) was 2.82 wt %, the “True Protein in Produced Milk” value (primiparious cows, weeks +1 through +8) was 2.9 wt % and the “increase in true protein concentration in the produced milk” value (Pre-Partum Trial #1 (75 g/day wk −3..−1 only) versus Control Trial #1, primiparious cows, weeks +1 through +8) was 7.4%. For the same compound, the “True Protein Content of Produced Milk” value (Pre-Partum Trial #2 (75/0/100 g/day in wk −3..−1/+1..+4/+5..+8), multiparious cows, week +1) was 3.95 weight %, the “True Protein Content of Produced Milk” value (Pre-Partum Trial #2 (75/0/100 g/day in wk −3..−1/+1..+4/+5..+8), multiparious cows, week +2) was 3.14 weight % and the “True Protein Content of Produced Milk” value (Pre-Partum Trial #2 (75/0/100 g/day in wk −3..−1/+1..+4/+5..+8), multiparious cows, week +3) was 2.81 weight %. The “True Protein Content of Produced Milk” value (Pre-Partum Trial #2 (75/0/100 g/day in wk −3..−1/+1..+4/+5..+8), multiparious cows, week +4) was 2.71^ab weight %, the “True Protein Content of Produced Milk” value (Pre-Partum Trial #2 (75/0/100 g/day in wk −3..−1/+1..+4/+5..+8), multiparious cows, week +5) was 2.63 weight % and the “True Protein Content of Produced Milk” value (Pre-Partum Trial #2 (75/0/100 g/day in wk −3..−1/+1..+4/+5..+8), multiparious cows, week +6) was 2.62 weight %. The “True Protein Content of Produced Milk” value (Pre-Partum Trial #2 (75/0/100 g/day in wk −3..−1/+1..+4/+5..+8), multiparious cows, week +7) was 2.60 weight %, the “True Protein Content of Produced Milk” value (Pre-Partum Trial #2 (75/0/100 g/day in wk −3..−1/+1..+4/+5..+8), multiparious cows, week +8) was 2.56 weight % and the “True Protein Content of Produced Milk” value (Pre-Partum Trial #2 (75/0/100 g/day in wk −3..−1/+1..+4/+5..+8), multiparious cows, weeks +1 through +4) was 3.11 weight %. The “True Protein Content of Produced Milk” value (Pre-Partum Trial #2 (75/0/100 g/day in wk −3..−1/+1..+4/+5..+8), multiparious cows, weeks +1 through +8) was 2.86 weight %, the “True Protein Content of Produced Milk” value (Pre-Partum Trial #2 (75/0/100 g/day in wk −3..−1/+1..+4/+5..+8), multiparious cows, weeks +5 through +8) was 2.60 weight % and the “True Protein Content of Produced Milk” value (Pre/Post Trial #1 (150/125/100 g/day in wk −3..−1/+1..+4/+5..+8), multiparious cows, week +1) was 4.01 weight %. For the same compound, the “True Protein Content of Produced Milk” value (Pre/Post Trial #1 (150/125/100 g/day in wk −3..−1/+1..+4/+5..+8), multiparious cows, week +1, two-trial comparison with Control Trial #2 (Table 24)) was 4.01 weight %, the “True Protein Content of Produced Milk” value (Pre/Post Trial #1 (150/125/100 g/day in wk −3..−1/+1..+4/+5..+8), multiparious cows, week +2) was 3.17 weight % and the “True Protein Content of Produced Milk” value (Pre/Post Trial #1 (150/125/100 g/day in wk −3..−1/+1..+4/+5..+8), multiparious cows, week +2, two-trial comparison with Control Trial #2 (Table 24)) was 3.17 weight %. For the same compound, the “True Protein Content of Produced Milk” value (Pre/Post Trial #1 (150/125/100 g/day in wk −3..−1/+1..+4/+5..+8), multiparious cows, week +3) was 2.85 weight %, the “True Protein Content of Produced Milk” value (Pre/Post Trial #1 (150/125/100 g/day in wk −3..−1/+1..+4/+5..+8), multiparious cows, week +3, two-trial comparison with Control Trial #2 (Table 24)) was 2.85 weight % and the “True Protein Content of Produced Milk” value (Pre/Post Trial #1 (150/125/100 g/day in wk −3..−1/+1..+4/+5..+8), multiparious cows, week +4) was 2.73^ab weight %. For the same compound, the “True Protein Content of Produced Milk” value (Pre/Post Trial #1 (150/125/100 g/day in wk −3..−1/+1..+4/+5..+8), multiparious cows, week +4, two-trial comparison with Control Trial #2 (Table 24)) was 2.73 weight %, the “True Protein Content of Produced Milk” value (Pre/Post Trial #1 (150/125/100 g/day in wk −3..−1/+1..+4/+5..+8), multiparious cows, week +5) was 2.65 weight % and the “True Protein Content of Produced Milk” value (Pre/Post Trial #1 (150/125/100 g/day in wk −3..−1/+1..+4/+5..+8), multiparious cows, week +5, two-trial comparison with Control Trial #2 (Table 24)) was 2.65 weight %. The “True Protein Content of Produced Milk” value (Pre/Post Trial #1 (150/125/100 g/day in wk −3..−1/+1..+4/+5..+8), multiparious cows, week +6) was 2.61 weight %, the “True Protein Content of Produced Milk” value (Pre/Post Trial #1 (150/125/100 g/day in wk −3..−1/+1..+4/+5..+8), multiparious cows, week +6, two-trial comparison with Control Trial #2 (Table 24)) was 2.61 weight % and the “True Protein Content of Produced Milk” value (Pre/Post Trial #1 (150/125/100 g/day in wk −3..−1/+1..+4/+5..+8), multiparious cows, week +7) was 2.57 weight %. The “True Protein Content of Produced Milk” value (Pre/Post Trial #1 (150/125/100 g/day in wk −3..−1/+1..+4/+5..+8), multiparious cows, week +7, two-trial comparison with Control Trial #2 (Table 24)) was 2.57 weight %, the “True Protein Content of Produced Milk” value (Pre/Post Trial #1 (150/125/100 g/day in wk −3..−1/+1..+4/+5..+8), multiparious cows, week +8) was 2.65 weight % and the “True Protein Content of Produced Milk” value (Pre/Post Trial #1 (150/125/100 g/day in wk −3..−1/+1..+4/+5..+8), multiparious cows, week +8, two-trial comparison with Control Trial #2 (Table 24)) was 2.65 weight %. For the same compound, the “True Protein Content of Produced Milk” value (Pre/Post Trial #1 (150/125/100 g/day in wk −3..−1/+1..+4/+5..+8), multiparious cows, weeks +1 through +4) was 3.18 weight %, the “True Protein Content of Produced Milk” value (Pre/Post Trial #1 (150/125/100 g/day in wk −3..−1/+1..+4/+5..+8), multiparious cows, weeks +1 through +4, two-trial comparison with Control Trial #2 (Table 24)) was 3.18 weight % and the “True Protein Content of Produced Milk” value (Pre/Post Trial #1 (150/125/100 g/day in wk −3..−1/+1..+4/+5..+8), multiparious cows, weeks +1 through +8) was 2.90 weight %. The “True Protein Content of Produced Milk” value (Pre/Post Trial #1 (150/125/100 g/day in wk −3..−1/+1..+4/+5..+8), multiparious cows, weeks +1 through +8, two-trial comparison with Control Trial #2 (Table 24)) was 2.90 weight %, the “True Protein Content of Produced Milk” value (Pre/Post Trial #1 (150/125/100 g/day in wk −3..−1/+1..+4/+5..+8), multiparious cows, weeks +5 through +8) was 2.62 weight % and the “True Protein Content of Produced Milk” value (Pre/Post Trial #1 (150/125/100 g/day in wk −3..−1/+1..+4/+5..+8), multiparious cows, weeks +5 through +8, two-trial comparison with Control Trial #2 (Table 24)) was 2.62 weight %. For the same compound, the “increase in true protein concentration in milk” value (“increase … in milk” below) (Pre/Post Trial #1 (150/125/100 g/day) versus Control Trial #2, multiparious cows, weeks +1 through +4 (Table 24)) was 4.6%, the “increase … in milk” value (Pre/Post Trial #1 (150/125/100 g/day) versus Control Trial #2, multiparious cows, weeks +1 through +8 (Table 24)) was 2.8% and the “True Protein Content of Produced Milk” value (Pre/Post Trial #2 (75/75/100 g/day in wk −3..−1/+1..+4/+5..+8), multiparious cows, week +1) was 3.96 weight %. For the same compound, the “True Protein Content of Produced Milk” value (Pre/Post Trial #2 (75/75/100 g/day in wk −3..−1/+1..+4/+5..+8), multiparious cows, week +2) was 3.13 weight %, the “True Protein Content of Produced Milk” value (Pre/Post Trial #2 (75/75/100 g/day in wk −3..−1/+1..+4/+5..+8), multiparious cows, week +3) was 2.89 weight % and the “True Protein Content of Produced Milk” value (Pre/Post Trial #2 (75/75/100 g/day in wk −3..−1/+1..+4/+5..+8), multiparious cows, week +4) was 2.77^b weight %. The “True Protein Content of Produced Milk” value (Pre/Post Trial #2 (75/75/100 g/day in wk −3..−1/+1..+4/+5..+8), multiparious cows, week +5) was 2.70 weight %, the “True Protein Content of Produced Milk” value (Pre/Post Trial #2 (75/75/100 g/day in wk −3..−1/+1..+4/+5..+8), multiparious cows, week +6) was 2.69 weight % and the “True Protein Content of Produced Milk” value (Pre/Post Trial #2 (75/75/100 g/day in wk −3..−1/+1..+4/+5..+8), multiparious cows, week +7) was 2.64 weight %. For the same compound, the “True Protein Content of Produced Milk” value (Pre/Post Trial #2 (75/75/100 g/day in wk −3..−1/+1..+4/+5..+8), multiparious cows, week +8) was 2.61 weight %, the “True Protein Content of Produced Milk” value (Pre/Post Trial #2 (75/75/100 g/day in wk −3..−1/+1..+4/+5..+8), multiparious cows, weeks +1 through +4) was 3.18 weight % and the “True Protein Content of Produced Milk” value (Pre/Post Trial #2 (75/75/100 g/day in wk −3..−1/+1..+4/+5..+8), multiparious cows, weeks +1 through +8) was 2.91 weight %. For the same compound, the “True Protein Content of Produced Milk” value (Pre/Post Trial #2 (75/75/100 g/day in wk −3..−1/+1..+4/+5..+8), multiparious cows, weeks +5 through +8) was 2.66 weight %, the “increase … in milk” value (average of means of Pre-Partum Trial #2, Pre/Post Trial #1 and Pre/Post Trial #2 versus Control Trial #2, multiparious cows, weeks +1 through +4) was 3.8% and the “increase … in milk” value (average of means of Pre-Partum Trial #2, Pre/Post Trial #1 and Pre/Post Trial #2 versus Control Trial #2, multiparious cows, weeks +1 through +8) was 2.5%.
